In brackets after ≈: the same amount, converted by molar mass.

Type in all cases: functional
Common to all, as to conditions: 672 h

The test system of test [1] is Mycobacterium tuberculosis. Nature of the test: Antimycobacterial activity against Mycobacterium tuberculosis H37Rv grown in MGIT liquid medium assessed as growth inhibition measured after 4 weeks by BACTEC method.
For test [2], the system named is Mycobacterium tuberculosis. In words: Antimycobacterial activity against MDR Mycobacterium tuberculosis grown in MGIT liquid medium assessed as growth inhibition measured after 4 weeks by BACTEC method.
Test [3] has as its system Mycobacterium tuberculosis. In words: Antimycobacterial activity against Mycobacterium tuberculosis H37Rv grown on Lowenstein-Jensen solid medium assessed as growth inhibition incubated with compound dissolved in water measured after 4 weeks.
Test [4] deals with Mycobacterium tuberculosis. In words: Antimycobacterial activity against Mycobacterium tuberculosis H37Rv grown on Lowenstein-Jensen solid medium assessed as growth inhibition incubated with compound dissolved in DMSO measured after 4 weeks.
In test [5] the test system is Mycobacterium tuberculosis. Nature of the test: Antimycobacterial activity against Mycobacterium tuberculosis H37Rv grown on Lowenstein-Jensen solid medium assessed as growth inhibition incubated with compound dissolved in ethanol/methanol measured after 4 weeks.
The subject of test [6] is Mycobacterium tuberculosis. In words: Antimycobacterial activity against Mycobacterium tuberculosis H37Rv grown on Lowenstein-Jensen solid medium assessed as growth inhibition measured after 4 weeks.

In the case of `CCCCCCCC1=C(O)C(=O)C=C(O)C1=O`, the minimal inhibitory concentration (MIC) in test [1] was 45 µg/mL (≈ 189 µM); in test [2] it was 106 µg/mL (≈ 445 µM).

Take `COc1cc(O)cc(O)c1C/C=C/c1ccccc1`: the MIC in test [3] worked out at 53.7 µg/mL (≈ 210 µM); in test [4], 49.7 µg/mL (≈ 194 µM).

As for `COc1ccc(-c2oc3cc(O)cc(O)c3c(=O)c2O)cc1` [KAEMPFERIDE], the MIC in test [3] was found to be 26 µg/mL (≈ 86.6 µM); in test [4], 32.7 µg/mL (≈ 109 µM).

`CCCC/C=C/CCCCCCCCCCCCCC1=C(C(C)=O)C(=O)C(C)=C(OC(C)=O)C1=O`: the MIC in test [1] was 5 µg/mL (≈ 10.3 µM); in test [2] it was 27.5 µg/mL (≈ 56.5 µM).

For the molecule `O=C1C[C@@H](c2ccccc2)Oc2cc(O)cc(O)c21` [PINOCEMBRIN], the results for the MIC in test [3] and in test [4] were 63.3 µg/mL (≈ 247 µM) and 73 µg/mL (≈ 285 µM), respectively.

On to `CCCCCCCCCC1=C(O)C(=O)C=C(O)C1=O`, for which the MIC came to 7.5 µg/mL (≈ 28.2 µM) in test [1] and 60 µg/mL (≈ 225 µM) in test [2].

Take `COc1ccc2c(c1OC)C=NC1C2CCC2CC3OCOC3CC21.Cl` (stereo not drawn): the MIC in test [3] is 50.3 µg/mL; in test [5], 16 µg/mL; in test [4], 31.3 µg/mL.

As to `COc1cc(O)c(C/C=C/c2ccccc2)c(O)c1OC`, the results for the MIC in test [3] and in test [4] were 48.3 µg/mL (≈ 169 µM) and 41 µg/mL (≈ 143 µM), respectively.

Turning to `COc1cc(O)c(CCCc2ccccc2)c(O)c1OC`, the MIC in test [3] is 49.7 µg/mL (≈ 172 µM); in test [4], 34.3 µg/mL (≈ 119 µM).

Take `COc1cc2c(=O)c(-c3ccc4c(c3)OCO4)coc2c2c1OC(C)(C)CC2`: the MIC came out at 37.9 µg/mL (≈ 99.6 µM) in test [3], 40.3 µg/mL (≈ 106 µM) in test [5] and 74.7 µg/mL (≈ 196 µM) in test [4].

As for `CCCCCCCCCCCCCC1=C(O)C(=O)C=C(O)C1=O` [Rapanone], the values for the MIC in test [1] and in test [2] were 35 µg/mL (≈ 109 µM) and 65 µg/mL (≈ 202 µM), respectively.

On to `CCCC/C=C/CCCCCCCCCCCCCc1c(O)c(OC(C)=O)c(C)c(OC(C)=O)c1OC(C)=O`, for which the MIC was 10 µg/mL (≈ 18.3 µM) in test [1] and 40 µg/mL (≈ 73.2 µM) in test [2].

As for `COc1cc(-c2cc(=O)c3c(O)cc(O)cc3o2)c(OC)c(OC)c1OC`, the values for the minimum inhibitory concentration (MIC) in test [3], in test [5] and in test [4] were 48 µg/mL (≈ 128 µM), 7.4 µg/mL (≈ 19.8 µM) and 15 µg/mL (≈ 40.1 µM), respectively.

`CCCCCCCCCCCC1=C(O)C(=O)C=C(O)C1=O` [EMBELIN]: the MIC was 15 µg/mL (≈ 51 µM) in test [1]; 49 µg/mL (≈ 166 µM) in test [3]; 14.7 µg/mL (≈ 49.9 µM) in test [5]; 35.3 µg/mL (≈ 120 µM) in test [4]; 50 µg/mL (≈ 170 µM) in test [2].

Turning to `COc1ccc(-c2oc3cc(O)c(OC)c(O)c3c(=O)c2OC)cc1` [SANTIN], the minimum inhibitory concentration (MIC) in test [3] came out at 51 µg/mL (≈ 148 µM); in test [4] it was 59 µg/mL (≈ 171 µM).

For the molecule `CC1=CC(=O)c2c(O)cccc2C1=O` [PLUMBAGIN], the figures for the minimal inhibitory concentration (MIC) in test [3] and in test [4] were 40.3 µg/mL (≈ 214 µM) and 42.3 µg/mL (≈ 225 µM), respectively.

Take `CC(C)CCc1cc2c(cc1O)OCC1c3cc(O)cc(CCC(C)C)c3OC21` (stereo not drawn): the MIC was determined as 81.7 µg/mL (≈ 206 µM) in test [3] and 74.3 µg/mL (≈ 187 µM) in test [4].

Consider `COc1cc(O)c(C/C=C/c2ccccc2)c(OC)c1`, for which the MIC is 37.9 µg/mL (≈ 140 µM) in test [3] and 58.4 µg/mL (≈ 216 µM) in test [4].

Regarding `CC(=O)c1c(C)cc2cccc(O)c2c1O` [NEPODIN], the MIC in test [3] stood at 84.7 µg/mL (≈ 392 µM); in test [4] it was 40.3 µg/mL (≈ 186 µM).

In the case of `COc1ccc(C2Oc3cc(O)c(OC)c(O)c3C(=O)C2OC)cc1` (stereo not drawn), the MIC in test [3] is 59.3 µg/mL (≈ 171 µM); in test [4], 53 µg/mL (≈ 153 µM).

`C=C1CC23CCC4[C@](O)(CO)C[C@@H](O)C[C@]4(C)C2CCC1C3` (stereo partly drawn): the MIC in test [3] stood at 66.8 µg/mL (≈ 218 µM); in test [5], 39.7 µg/mL (≈ 130 µM); in test [4], 37.6 µg/mL (≈ 123 µM).

For the molecule `CCCCCC1=C(O)C(=O)C=C(O)C1=O`, the MIC in test [1] was 50 µg/mL (≈ 238 µM); in test [2], 110 µg/mL (≈ 523 µM).

As to `CCC1=C(O)C(=O)C(CC)=C(O)C1=O`, the results for the MIC in test [1] and in test [2] were 50 µg/mL (≈ 255 µM) and 55 µg/mL (≈ 280 µM), respectively.

Consider `Cc1cc(O)c2c(c1)C(=O)c1cc(O)cc(O)c1C2=O` [EMODIN], for which the figures for the MIC in test [3] and in test [4] were 50.3 µg/mL (≈ 186 µM) and 51.7 µg/mL (≈ 191 µM), respectively.

For the molecule `CCCCCCCCCCCCCC1=C(O)C(=O)C=C(OC)C1=O` [Sorgoleone-364], the MIC in test [1] came to 60 µg/mL (≈ 178 µM); in test [2], 70 µg/mL (≈ 208 µM).

Take `CO[C@H]1/C=C/O[C@@]2(C)Oc3c(C)c(O)c4c(O)c(c(/C=N/N5CCN(C)CC5)c(O)c4c3C2=O)NC(=O)/C(C)=C\C=C\[C@H](C)[C@H](O)[C@@H](C)[C@@H](O)[C@@H](C)[C@H](OC(C)=O)[C@@H]1C` [RIFAMPIN]: the MIC in test [1] was 7.5 µg/mL (≈ 9.11 µM); in test [6], 45.7 µg/mL (≈ 55.5 µM); in test [2], 30 µg/mL (≈ 36.5 µM).

On to `C[C@]12CC(=O)CC(CO)(CO)C1CC[C@@]13CC4[C@@H](CC12)[C@@]4(C)C3` (stereo partly drawn), for which the figures for the MIC in test [3], in test [5] and in test [4] were 23.3 µg/mL (≈ 73.2 µM), 42.3 µg/mL (≈ 133 µM) and 42.9 µg/mL (≈ 135 µM), respectively.

As to `CCCC1=C(O)C(=O)C=C(O)C1=O`, the MIC amounted to 85 µg/mL (≈ 467 µM) in test [1] and 115 µg/mL (≈ 631 µM) in test [2].

With `C[C@@H]1CCC2(CO)C(C(=O)O)=CCCC2[C@@]1(C)CCc1ccoc1` (stereo partly drawn), the minimal inhibitory concentration (MIC) is 36.7 µg/mL (≈ 110 µM) in test [3], 31 µg/mL (≈ 93.2 µM) in test [5] and 37.4 µg/mL (≈ 113 µM) in test [4].

`CCCCCCCCCCCC1=C(OC)C(=O)C=C(OC)C1=O`: the MIC in test [1] was 10 µg/mL (≈ 31 µM); in test [2] it was 20 µg/mL (≈ 62 µM).

As to `CCCC/C=C/CCCCCCCCCC1=C(O)C(=O)C=C(OC)C1=O`, the MIC in test [3] amounted to 50 µg/mL (≈ 138 µM); in test [4], 40.7 µg/mL (≈ 112 µM).

With `NNC(=O)c1ccncc1` [ISONIAZID], the MIC in test [1] came out at 0.8 µg/mL (≈ 5.83 µM); in test [6], 0.6 µg/mL (≈ 4.38 µM); in test [2], 2.7 µg/mL (≈ 19.7 µM).

For `CCCCCCCCCCCC1=C(O)C(=O)C=C(OC)C1=O` [5-O-METHYLEMBELIN], the MIC in test [1] came out at 15 µg/mL (≈ 48.6 µM); in test [2] it was 32.9 µg/mL (≈ 107 µM).

Regarding `COc1ccc(-c2coc3cc(O)cc(O)c3c2=O)cc1C=O`, the MIC in test [3] came out at 36.3 µg/mL (≈ 116 µM); in test [4], 37 µg/mL (≈ 118 µM).

Consider `CCCC/C=C/CCCCCCCCCC1=C(O)C(=O)C(C)=C(O)C1=O`, for which the MIC in test [3] was determined as 40.9 µg/mL (≈ 113 µM); in test [4] it was 41.3 µg/mL (≈ 114 µM).

In the case of `CN[C@@H]1[C@H](O[C@H]2[C@H](O[C@H]3[C@H](O)[C@@H](O)[C@H](N=C(N)N)[C@@H](O)[C@@H]3N=C(N)N)O[C@@H](C)[C@]2(O)C=O)O[C@@H](CO)[C@H](O)[C@H]1O` [STREPTOMYCIN], the MIC came out at 3.3 µg/mL (≈ 5.67 µM) in test [1], 4.95 µg/mL (≈ 8.51 µM) in test [6] and 2.5 µg/mL (≈ 4.3 µM) in test [2].

Turning to `CCCCCCCCCCCCCCCC1=C(O)C(=O)C=C(O)C1=O`, the MIC in test [1] was 107 µg/mL (≈ 305 µM); in test [2], 105 µg/mL (≈ 300 µM).

Turning to `CCCCCCCCCCCC1=C(C(C)=O)C(=O)C=C(OC(C)=O)C1=O`, the MIC amounted to 42.5 µg/mL (≈ 117 µM) in test [1] and 50 µg/mL (≈ 138 µM) in test [2].

With `c1c2c(cc3c1C1CCN4CCC[C@@]56CCN3[C@@]1(CC5)C46)OCO2` (stereo partly drawn), the MIC in test [3] stood at 38.7 µg/mL (≈ 119 µM); in test [4], 36.2 µg/mL (≈ 112 µM).

Regarding `CCC1=C(O)C(=O)C=C(O)C1=O`, the MIC in test [1] worked out at 109 µg/mL (≈ 648 µM); in test [3], 62.3 µg/mL (≈ 371 µM); in test [4], 70 µg/mL (≈ 416 µM); in test [2] it was 120 µg/mL (≈ 714 µM).

Regarding `O=C1CCc2nccc3c4ccccc4n1c23`, the MIC in test [3] came to 49.3 µg/mL (≈ 222 µM); in test [5], 30 µg/mL (≈ 135 µM); in test [4] it was 42 µg/mL (≈ 189 µM).

As to `COc1cc(O)c2c(=O)c(O)c(-c3ccc(O)cc3)oc2c1` [RHAMNOCITRIN], the figures for the MIC in test [3], in test [5] and in test [4] were 59.7 µg/mL (≈ 199 µM), 15.3 µg/mL (≈ 51 µM) and 37.7 µg/mL (≈ 126 µM), respectively.

As to `CC[C@@H](CO)NCCN[C@@H](CC)CO` [ETHAMBUTOL], the MIC in test [1] was determined as 2.5 µg/mL (≈ 12.2 µM); in test [6] it was 2.65 µg/mL (≈ 13 µM); in test [2], 15 µg/mL (≈ 73.4 µM).

For orientation: MIC means the least concentration at which growth counts as inhibited.

For the origin of these results see ChEMBL document CHEMBL3044747, “The antimycobacterial MICs, SARs, and QSARs of some ethnobotanically selected phytocompounds” (2013).
